Key:
AMF spores = assay: Arbuscular mycorrhizal fungi (AMF) spore germination experiment; assay type: cell-based; details: 10^−8M in M-medium, 26.5° C. dark, average of 3 replicates
Description: Test is performed under lab conditions. The active ingredient was solved in a solvent (acetone) and added to warm culture medium (M-medium; Bécard et Fortin, 1988) to obtain a final concentration of 10^−8M. After filling the culture medium in 24-well plates, AMF spores were deposited on the surface of culture medium. Plates were incubated at 26.5° C. in the dark. Assessment consisted of counting of germinated spores 3 and 4 days after application (daa).

[1] = tested on: Glomus intraradices / Medicago truncatula plantlets; assay: In vitro phosphate (33P) transport to host plant by mycorrhizal fungi; assay type: in vivo; details: 96 hours after addition of 33P, average of 4 replicates
Description: One-week-old Medicago truncatula plantlets were transferred in the AM-P in vitro culture systems (details on AM-P systems see: H. Dupré Boulois et al., 2006). The roots were placed in the root compartment (RC) on the surface of the solid MSR medium (Declerck et al., 2003) lacking vitamins and sucrose. The RC was filled with 25 ml and the hyphal compartment (HC) with 20 ml of solid MSR medium, lacking sucrose, vitamins and solidified with 3 g l^−1 Phytagel.
Roots of M. truncatula plantlets were subsequently inoculated with the spores (±100) of Glomus intraradices. The bi-compartmented Petri plates of the AM-P in vitro culture systems were then sealed using Parafilm (Pechiney, Menasha, Wis., USA) and wrapped in black plastic bags to maintain roots and the G. intraradices in the dark. The AM-P in vitro culture systems were subsequently incubated in a controlled environment chamber (20° C., 16 h photoperiod). The AMP in vitro culture systems were supplied weekly with 5 ml of MSR medium up to 2 weeks before radio-isotopic labelling (10 weeks after inoculation).
Three weeks after inoculation, AM fungal mycelium started to contact the roots and to develop in the entire volume of the RCs. Between week 5 and 7, the mycelium crossed the partition wall between the RCs and HCs and started to develop in the HCs. The roots that crossed the plastic barrier were trimmed to leave the HC void of roots. Eight weeks after inoculation, the medium contained in the HCs was removed and then replaced by fresh MSR medium, lacking sucrose, vitamins and solidified with 3 g l^−1 Phytagel. In this medium, the active ingredient at the desired concentrations (in 0.1% acetone) was also added. The mycelium started immediately to re-grow into the fresh medium containing the active ingredient. At time of labeling, the mycelium in the HCs was 2 weeks-old.
Ten weeks after beginning of the experiment (i.e. 2 weeks after initiation of hyphal development in the HCs containing the active ingredient), filter-sterilized (Acrodisc® Syringe Filters, PALL Corporation, Ann Arbor, Mich., USA) phosphorus (^33P) was added in the HCs (489520+/−12080 CPM per systems). The source of ^33P was orthophosphate in dilute hydrochloric acid (<0.1 M) supplied by Amersham Pharmacia Biotech (Buckinghamshire, UK). A control treatment was included. Four replicates were considered per treatment.
At the end of the experiment (i.e. 96 hours after the addition of ^33P), the shoots of M. truncatula were collected by cutting the shoots at the level of the solidified MSR medium contained in the RCs. The roots were then removed from the solidified MSR medium and cleaned-free from the remaining gel and extraradical mycelium. Root and shoots were oven dried (60° until constant weight) and weighted. […]

Soybean seeds = assay: Germination test on soybean seeds; assay type: in vivo; details: agar plates, 7.5° C. dark, 5 replicates of 20 seeds
Description: (§1) The test is performed under lab conditions. Soybean and maize seeds, treated with the active ingredient solved in DMSO and diluted with water to the desired dosages, are placed on sterile agar plates (0.5% agar in water). Covered plates are incubated at 7.5° C. and 10° C. respectively in the dark. Wheat seeds, treated with the active ingredient, solved in DMSO and diluted with water to the desired dosages, are placed on sterile agar plates (1% agar in water). Covered plates are incubated at 7.5° C. in the dark. Controls are performed in the same conditions in the absence of the active ingredient. Assessment consisted of counting germinated seeds per plate at different time points.

Maize seeds = assay: Germination test on maize seeds; assay type: in vivo; details: agar plates, 10° C. dark, 5 replicates of 20 seeds
Description: as §1

Wheat seeds = assay: Germination test on wheat seeds; assay type: in vivo; details: agar plates, 7.5° C. dark, 5 replicates of 20 seeds
Description: as §1

[2] = tested on: maize roots inoculated with arbuscular mycorrhizal fungi; assay: Greenhouse experiment on maize under low phosphate conditions (mycorrhization of roots); assay type: in vivo; details: maize seed treatment 0.1 mg/ha, AMF inoculum, low phosphate (20 μM), 6 weeks greenhouse, trypan blue staining
Description: Test is performed in the greenhouse. 5 maize seeds per treatment were sown in 500 ml rose pots (7×7×18 cm) containing a mix of sand and perlite (1:1). 3 replicates were made. The active ingredient was solved in a DMSO and seed treatment was performed with lab equipment. To inoculate with arbuscular mycorrhizal fungi, 8 ml inoculum (AMykor GmbH; Germany) were mixed with 1 l of the sand-perlite mixture. Seeds were covered by 3 cm of LECA (light expanded clay aggregate). Pots were incubated in the greenhouse for 6 weeks at 21.5° C./14° C. (day/night) and 80% relative humidity. Once a week plants were watered with nutrient solution (half concentrated Hoagland solution (Hoagland and Arnon, 1950)) containing only a low concentration of phosphate (20 μM). Assessment consisted of mycorrhization of roots. Mycorrhization was evaluated after trypan blue staining by microscopy. Controls are performed in the same conditions in the absence of the active ingredient.

Maize plants = assay: Greenhouse experiment on maize (SPAD chlorophyll reading); assay type: in vivo; details: seeds soaked, 0.1 mg/ha, 45 days after seeding, average of 4 replicates
Description: Test is performed under greenhouse conditions. Plants were grown in pots on a growth bench in the greenhouse at constant air temperature of 25° C. (day) and 20° C. (night) and 65% relative humidity. Plants were regularly watered with ½ strength Hoagland's solution containing nitrogen (Hoagland and Arnon, 1950) as needed. Maize seeds were carefully surface sterilized in 2% sodium hypochlorite for 3 min. followed by several rinsing with sterile distilled water (Bhuvaneswari et al. 1980). Seeds were directly sown in pots ([…]) containing a mixture of sand and turface (2:1, v/v) (2.5 L in each pot. Five seeds were put in each pot. The seeds were covered gently with the potting mixture and kept on the growth bench. After counting emergence, seedlings were thinned to one seedling per pot. Before sowing, seeds were soaked in solution containing the active ingredient at the desired concentration for at least two hours. The plants were allowed to grow for 45 days after seeding and were then harvested for final data collection. Data were collected on the SPAD meter readings (leaf greenness measurements (chlorophyll content); SPAD-502 Chlorophyll Meter (Konica Minolta Sensing Inc., Japan)

Soybean plants = assay: Greenhouse experiment on soybean inoculated with Bradyrhizobium japonicum; assay type: in vivo
Description: Test is performed under greenhouse conditions. The experiment was conducted at a constant air temperature of 25° C. (day) and 20° C. (night) and 65% relative humidity. Plants were regularly watered with ½ strength Nitrogen free Hoagland's solution (Hoagland and Arnon, 1950) as needed.
Initial culture of Bradyrhizobium japonicum was prepared by inoculating single cell colonies from petri plates in 200 mL Yeast Extract Mannithol (YEM) broth (pH 6.8) and incubated at 28° C. and shaken at 150 rpm until an OD600 of 0.2-0.3 is achieved (2-3 days). Absorbance (A600 nm) of the bacterial cultures was determined using a spectrophotometer. The culture was diluted to an OD600 of 0.08 and 1 mL of this culture was used for inoculation onto seeds of all treatments.
Soybean seeds were surface sterilized in 2% sodium hypochlorite for 3 min and then rinsed several times with distilled water (Bhuvaneswari et al. 1980). Seeds were directly sown in pots (130 mm diameter) containing a mixture of sand and turface (2:1, v/v). Five soybean seeds were put in each. Before sowing seeds were soaked in solution containing the active ingredient at the desired concentration for at least two hours. Bradyrhizobium japonicum inoculant prepared as described above was inoculated onto soybean seeds by pipetting 1 mL of diluted culture onto each seed. The seeds were covered gently with the potting mixture, kept on the growth bench. After monitoring emergence, seedlings were thinned to one seedling per pot.
The plants were allowed to grow for 45 days after seeding and were then harvested for final data collection. Data were collected on the following variables: • 1. SPAD meter readings (leaf greenness measurements (chlorophyll content); SPAD-502 Chlorophyll Meter (Konica Minolta Sensing Inc., Japan) • 2. Number of nodules per plant • 3. Nodule dry weight

Spring wheat = Spring wheat field trial (2010); assay type: in vivo; details: seed treatment of spring wheat, result in words
Description: Maize and wheat field trials were conducted in order to evaluate several assessments including the weight of plant (leaf+roots), the formation of mycorrhiza, and yield parameters like the weight of grains per plot in tons per ha and the 1000 kernel weight. In addition to the tested compounds, a basic treatment of fungicides was also applied on the seeds. The tested active ingredients were pre-diluted in DMSO and applied on seeds in tank mix with fungicides. Spring wheat: Germany (Monheim), soil description: sandy loam, phosphor 11 mg/100 g soil, potassium 14 mg/100 g soil, magnesium 8 mg/100 g soil, organic matter 1.2%, pH 6.4. Sowing date: 2010-04-01 In both crops no phosphate or potassium fertilizer were applied. Compound A1: 0.1 and 1 milligrams active ingredient per hectare Base: Fungicide: Fluoxastrobin+Prothioconazole+Tebuconazole FS 80/Dosage: 5.6+5.6+0.747 grams active ingredient per 100 kg seeds. The following yield parameters were assessed: tons per hectare (for wheat only), TKW=1000 kernel weight. Mycorrhization of roots of spring wheat plants was assessed by trypan blue staining followed by microscopy.

Arabidopsis root = details: literature report (Planta, 2008); cited from earlier work
[3] = soybean, seeds soaked, 0.1 mg/ha, 45 days after seeding, average of 4 replicates

| SMILES | Germination rate 3 daa (AMF spores; 3 days after application) | Germination rate 4 daa (AMF spores; 4 days after application) | ^33P counting root ([1]; 10^−6 M in hyphal compartment) | ^33P counting shoot ([1]; 10^−6 M in hyphal compartment) | ^33P counting root ([1]; 10^−7 M in hyphal compartment) | ^33P counting shoot ([1]; 10^−7 M in hyphal compartment) | Soybean Germination rate 7 daa (Soybean seeds; seed treatment 0.1 mg/ha) | Soybean Germination rate 7 daa (Soybean seeds; seed treatment 1 mg/ha) | Maize Germination rate 6 daa (Maize seeds; seed treatment 0.1 mg/ha) | Maize Germination rate 6 daa (Maize seeds; seed treatment 1 mg/ha) | Wheat Germination rate 3 daa (Wheat seeds; seed treatment 0.1 mg/ha) | Wheat Germination rate 3 daa (Wheat seeds; seed treatment 1 mg/ha) | Mycorrhization [2] | SPAD (Maize plants) | biomass (root and shoot) (Soybean plants; soybean seeds treated, greenhouse, comparatively to the control, figures not given) | Nodule weight (dry) (Soybean plants; [3]) | Number of nodules (Soybean plants; [3]) | SPAD (Soybean plants; [3]) | yield (Spring wheat) | Arabidopsis root length (Arabidopsis root) |
| --- | --- | --- | --- | --- | --- | --- | --- | --- | --- | --- | --- | --- | --- | --- | --- | --- | --- | --- | --- | --- |
| CCCCCC(=O)CC(=O)NC1CCOC1=O (centres unmarked) [Compound A1] | 58% | 78% | 121485.7 | 61277.6 | 111374.4 | 70473.9 | 77% | 84% | 95% | 94% | 52% | 69% | 4.3% | 42 | increase of biomass (root and shoot) | 0.180 g | 84 | 34 | significative yield increase |  |
| CCCCCC(=O)NC1CCOC1=O (centres unmarked) [N-hexanoyl-d1-homoserine-lactone] |  |  |  |  |  |  |  |  |  |  |  |  |  |  |  |  |  |  |  | small increase |
